Data reported in patent US20250345492A1, “AN ANTIBACTERIAL POLYPEPTIDE COMPOUND, A MEDICAL DEVICE, HYDROGEL AND USE THEREOF” (priority 2020, published 2025).
Ends that are not written are not given here.

Assays:
[1] = test system: mouse mononuclear macrophage RAW264.7; test: Cytotoxicity, MTT colorimetry; assay type: cell-based
Procedure: (§1) For cytotoxicity determination, the MTT colorimetry was used to evaluate the effects of the compounds on the proliferation of human cervical cancer cell Hela, human embryonic renal epithelial cell HEK293 and mouse mononuclear macrophage RAW264.7.
(§2) Taking compounds 2, 8, 9, 13 and 15 of the present invention as examples, the cytotoxicity of the antibacterial polypeptide compounds was analyzed. Three cell lines were employed for the present invention, namely human cervical cancer cell Hela, human embryonic renal epithelial cell HEK293 and mouse mononuclear macrophage RAW264.7. Hela cells were cultured in RPMI 1640 medium with 10% newborn calf serum, HEK293 cells and RAW264.7 cells were cultured in DMEM medium with 10% fetal bovine serum. Simply, cells (1×10^4 cells/well) were inoculated to a 96-well plate and incubated in an incubator set to 5% CO2 at 37° C. After 24 hours, compounds of different concentrations were added and incubated in the 5% CO2 incubator. After 24 hours, 20 μL of MTT solution with a concentration of 5 mg/mL was added to each well and incubated for 4 hours. After that, the medium was removed with a pipet, and 150 μL of DMSO added to dissolve the purple-blue formazan crystals. The solution was shaken in an oscillator for 5 mins before detecting the absorbance value at 570 nm using the ELISA reader, and then the survival rate was calculated with the formula: (OD dosing group/OD control group)×100% (n=3).

[2] = test system: human cervical cancer cell Hela; test: Cytotoxicity, MTT colorimetry; assay type: cell-based
Procedure: as §1, §2

[3] = test system: human embryonic renal epithelial cell HEK293; test: Cytotoxicity, MTT colorimetry; assay type: cell-based
Procedure: as §1, §2

[4] = test system: E-5b, clinical isolated drug-resistant strain ESBL; conditions: strain E-5b (ESBL)
Excerpt: (§3) With respect to the determination of antibacterial activity and antifungal activity of the antibacterial polypeptide compounds, the bacterial strains employed included: E. coli (ATCC 25922), E. coli (ATCC 43837), Pseudomonas aeruginosa (ATCC 27853), Klebsiella pneumoniae (ATCC 700603), Cronobacter sakazakii (ATCC 29544), Staphylococcus aureus (ATCC 29213), Bacillus subtilis (ATCC 23857) and Staphylococcus epidermidis (ATCC 12228); and the fungal strains employed included Candida albicans (ATCC 14053), Candida glabrata (ATCC 2001), Candida parapsilosis (ATCC 22019), Candida tropicalis (ATCC 750) and Candida krusei (ATCC 6258), all of which were standard strains from American Type Culture Collection. In addition, drug-resistant strains S-1a, S-2a, S-3a, S-4a, E-1b, E-2b, E-3b, E-4b, E-5b, P-1c, P-2c, P-3c, P-4c, P-5c, and clinically isolated fungal strains Candida glabrata 2-1 and Candida albicans 14-1, 14-2 and 14-3 were employed, all which were clinically isolated.
(§4) Simply, a proper amount of the cryopreserved bacterium or fungus was added to fresh MH/SD medium, and cultured on a shaker overnight at 180 rpm at 37° C. The obtained cells were seeded again and cultured on a shaker for 4-5 hours to obtain cells in logarithmic phase. The resulting cells were added to a 96-well plate (1×10^5 CFU/ml, 100 μL/well), and then 100 μL of polypeptide with different concentrations (1-256 μM) twice the final concentrations was added to corresponding well according to the 2-fold serial dilution method. The fresh medium was used as a negative control, which was prepared in triplicate for each concentration. After dosing, the 96-well plate was placed in an incubator at constant 37° C. and humidity for 12 hours to observe the results. According to naked eye observations, the concentration of the compound in the first transparent well following the turbid wells was recorded as the MIC of the compound, namely, the MIC value of the compound to the bacterium or fungus.

[5] = test system: S-1a, clinical isolated drug-resistant strain MRSA; conditions: strain S-1a (MRSA)
Excerpt: as §3, §4

E. coli (ATCC 25922) [6] = conditions: ATCC 25922
Excerpt: as §3, §4

[7] = test system: P-5c, clinical isolated drug-resistant strain PA; conditions: strain P-5c (PA)
Excerpt: as §3, §4

[8] = test system: Cronobacter sakazakii (ATCC 29544); conditions: ATCC 29544
Excerpt: as §3, §4

C. krusei ATCC6258 = conditions: ATCC6258
Excerpt: as §3, §4

[9] = test system: S-2a, clinical isolated drug-resistant strain MRSA; conditions: strain S-2a (MRSA)
Excerpt: as §3, §4

[10] = test system: P-3c, clinical isolated drug-resistant strain PA; conditions: strain P-3c (PA)
Excerpt: as §3, §4

C. albicans ATCC14053 = conditions: ATCC14053
Excerpt: as §3, §4

[11] = test system: S-4a, clinical isolated drug-resistant strain MRSA; conditions: strain S-4a (MRSA)
Excerpt: as §3, §4

[12] = test system: E-2b, clinical isolated drug-resistant strain ESBL; conditions: strain E-2b (ESBL)
Excerpt: as §3, §4

[13] = test system: E-3b, clinical isolated drug-resistant strain ESBL; conditions: strain E-3b (ESBL)
Excerpt: as §3, §4

C. glabrata ATCC22019 = conditions: ATCC22019
Excerpt: as §3, §4

[14] = test system: Staphylococcus epidermidis (ATCC 12228); conditions: ATCC 12228
Excerpt: as §3, §4

[15] = test system: E-4b, clinical isolated drug-resistant strain ESBL; conditions: strain E-4b (ESBL)
Excerpt: as §3, §4

[16] = test system: Pseudomonas aeruginosa (ATCC 27853); conditions: standard strain
Excerpt: as §3, §4

[17] = test system: Staphylococcus aureus (ATCC 29213); conditions: ATCC 29213
Excerpt: as §3, §4

[18] = test system: P-1c, clinical isolated drug-resistant strain PA; conditions: strain P-1c (PA)
Excerpt: as §3, §4

C. parapsilosis ATCC2001 = conditions: ATCC2001
Excerpt: as §3, §4

[19] = test system: S-3a, clinical isolated drug-resistant strain MRSA; conditions: strain S-3a (MRSA)
Excerpt: as §3, §4

[20] = test system: P-2c, clinical isolated drug-resistant strain PA; conditions: strain P-2c (PA)
Excerpt: as §3, §4

[21] = test system: P-4c, clinical isolated drug-resistant strain PA; conditions: strain P-4c (PA)
Excerpt: as §3, §4

[22] = test system: E-1b, clinical isolated drug-resistant strain ESBL; conditions: strain E-1b (ESBL)
Excerpt: as §3, §4

C. tropicalis ATCC750 = conditions: ATCC750
Excerpt: as §3, §4

[23] = test system: Bacillus subtilis (ATCC 23857); conditions: ATCC 23857
Excerpt: as §3, §4

Acute toxicity in mice = test: Acute toxicity in mice; design: species or system Kunming mice; conditions: mouse, in vivo, ip, intraperitoneal injection, Karber method
Procedure: Acute toxicity of the compounds was determined by measuring the acute toxicity in mice with the compounds.
Taking compounds 2, 8, 9, 13 and 15 of the present invention as examples, […]. The mice used in this test were Kunming mice, which were placed in constant-temperature environment (22±1° C.) and could freely obtain water and food. Simply, 132 healthy Kunming mice were randomly divided into 11 groups, with 12 mice in each group (half male and half female), wherein, 5 groups were intraperitoneally injected with 0.2 ml of the compounds of different doses (100-1000 mg/kg), and the control group was intraperitoneally injected with normal saline. In this experiment, melittin was used as a reference control, and the other 5 groups were intraperitoneally injected with melittin of different doses (10-32 mg/kg). The state of mice was observed and recorded after 2 hours of administration, and then observed twice a day for 14 days, and the survival rates of the mice were recorded.

E. coli (ATCC 25922) [24] = test: Mouse septic peritonitis model, survival; assay type: in vivo, Kunming mice; conditions: 20 mg/kg intraperitoneally one hour after E. coli inoculation, 7 days of observation
Procedure: The determination of the in vivo antibacterial activity of the antibacterial polypeptide compounds is to reflect the antibacterial activity in vivo by detecting the survival rate of mice infected with bacteria or fungi.
Taking compounds 2, 8, 9, 13 and 15 of the present invention as examples, the in vivo antibacterial effects of the antibacterial polypeptide compounds were analyzed. The mice used in this test were Kunming mice, which were placed in constant-temperature environment (22±1° C.). Simply, 36 Kunming mice (18-22 g of body weight) were randomly divided into 6 groups and intraperitoneally injected with 0.2 ml of 3×10^8 CFU/mL E. coli (ATCC 25922) on Day 1 to establish mouse septic peritonitis model. The mice were administered intraperitoneally one hour after inoculation with the bacteria, and then the compounds 2, 8, 9, 13 and 15 were injected intraperitoneally at a dose of 20 mg/kg of body weight. Polymyxin B (20 mg/kg) was selected as a positive reference control, and a negative control group received intraperitoneal injection of sterile saline. After 7 days of observation, the survival rates of mice in administration groups and control groups were calculated to create survival curves.

Procedure for mouse red blood cells: The hemolytic activity was determined by measuring a hemolytic concentration for mouse red blood cells with the antibacterial polypeptide compounds.
The mouse red blood cells was diluted to a concentration of 8%, the obtained red blood cell suspension was added to a 96-well plate (100 μL per well), and then 100 μL of one compound was added to a corresponding well. After incubation for 1 hour, the supernatant of each well was added to another 96-well plate, and then the absorbance value of the sample supernatant was measured at 490 nm using a ELISA reader. With regard to the present invention, PBS and 2% Triton-X 100 were used as a negative control and a positive control, separately.

PWKLSLHL-NH2 [Compound 8]
16 µM: MIC [4] | MIC C. coli ATCC25922 (E. coli (ATCC 25922) [6]) | MIC C. sakazakii ATCC29544 [8] | MIC C. albicans ATCC14053 (C. albicans ATCC14053) | MIC [12] | MIC [13] | MIC C. glabrata ATCC22019 (C. glabrata ATCC22019) | MIC [15] | MIC P. aerugmosa ATCC27853 [16] | MIC [18] | MIC C. parapsilosis ATCC2001 (C. parapsilosis ATCC2001) | MIC [22] | MIC C. tropicalis ATCC750 (C. tropicalis ATCC750) | MIC B. subtilis ATCC23857 [23]
> 1000 mg/kg: LD50 (Acute toxicity in mice)
no inhibitory activity: effect on proliferation (inhibitory activity) [1] | effect on proliferation (inhibitory activity) [2] | effect on proliferation (inhibitory activity) [3]
64 µM: MIC [5] | MIC [9] | MIC [11] | MIC S. aureus ATCC29213 [17] | MIC [19]
8 µM: MIC [7] | MIC [10] | MIC [20] | MIC [21]
32 µM: MIC C. krusei ATCC6258 (C. krusei ATCC6258) | MIC S. epidermidis ATCC12228 [14]

PWRLRLHL-NH2 [Compound 13]
4 µM: MIC [4] | MIC [7] | MIC [10] | MIC [13] | MIC P. aerugmosa ATCC27853 [16] | MIC [20] | MIC [21]
16 µM: MIC S. epidermidis ATCC12228 [14]
no inhibitory activity: effect on proliferation (inhibitory activity) [1] | effect on proliferation (inhibitory activity) [2] | effect on proliferation (inhibitory activity) [3]
32 µM: MIC [5] | MIC C. krusei ATCC6258 (C. krusei ATCC6258) | MIC [9] | MIC C. albicans ATCC14053 (C. albicans ATCC14053) | MIC [11] | MIC S. aureus ATCC29213 [17] | MIC [19]
8 µM: MIC C. coli ATCC25922 (E. coli (ATCC 25922) [6]) | MIC C. sakazakii ATCC29544 [8] | MIC [12] | MIC C. glabrata ATCC22019 (C. glabrata ATCC22019) | MIC [15] | MIC [18] | MIC C. parapsilosis ATCC2001 (C. parapsilosis ATCC2001) | MIC [22] | MIC C. tropicalis ATCC750 (C. tropicalis ATCC750) | MIC B. subtilis ATCC23857 [23]
> 1000 mg/kg: LD50 (Acute toxicity in mice)

PWRLRLRL-NH2 [Compound 15]
no inhibitory activity: effect on proliferation (inhibitory activity) [1] | effect on proliferation (inhibitory activity) [2] | effect on proliferation (inhibitory activity) [3]
> 1000 mg/kg: LD50 (Acute toxicity in mice)
4 µM: MIC [4] | MIC C. coli ATCC25922 (E. coli (ATCC 25922) [6]) | MIC C. albicans ATCC14053 (C. albicans ATCC14053) | MIC [12] | MIC [13] | MIC C. glabrata ATCC22019 (C. glabrata ATCC22019) | MIC [15] | MIC C. parapsilosis ATCC2001 (C. parapsilosis ATCC2001) | MIC [22] | MIC C. tropicalis ATCC750 (C. tropicalis ATCC750) | MIC B. subtilis ATCC23857 [23]
16 µM: MIC C. krusei ATCC6258 (C. krusei ATCC6258)
8 µM: MIC [5] | MIC [7] | MIC C. sakazakii ATCC29544 [8] | MIC [9] | MIC [10] | MIC [11] | MIC S. epidermidis ATCC12228 [14] | MIC P. aerugmosa ATCC27853 [16] | MIC S. aureus ATCC29213 [17] | MIC [18] | MIC [19] | MIC [20] | MIC [21]

Polymyxin B
100%: survival rate of mice (E. coli (ATCC 25922) [24])

Triton X-100
100%: hemolysis rate (mouse red blood cells)
